Reference: the supplement of paper PMC10307832

Legend:
Test in all cases: relative viability (nuclei count vs DMSO), 5 days (fraction); higher = more cells survive
[1] = compound: Cc1ccc(C(=O)N(CCCN)[C@@H](c2nc3cc(Cl)ccc3c(=O)n2Cc2ccccc2)C(C)C)cc1 [Ispinesib] + CS(=O)(=O)CCNCc1ccc(-c2ccc3ncnc(Nc4ccc(OCc5cccc(F)c5)c(Cl)c4)c3c2)o1 [Lapatinib] (partner 2 µM)
Procedure, shortened: (§1)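 Values are medians from duplicate plates. Each reflects relative viability, defined as the nuclei count of treated wells over that of vehicle wells. Lung cancer cell lines in 1536-well plates were pin-tool dosed one day after seeding with one drug alone or with a fixed anchor-drug dose plus five library-drug doses (not always all listed) in √10 steps, then fixed, stained and imaged at 4× after 5 days.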

[2] = compound: Cc1ccc(C(=O)N(CCCN)[C@@H](c2nc3cc(Cl)ccc3c(=O)n2Cc2ccccc2)C(C)C)cc1 [Ispinesib] + Cc1nc(Nc2ncc(C(=O)Nc3c(C)cccc3Cl)s2)cc(N2CCN(CCO)CC2)n1 [Dasatinib] (partner 0.075 µM)
Procedure, shortened: as §1

[3] = compound: C[C@]1(O)C[C@@H](c2nc(-c3ccc4ccc(-c5ccccc5)nc4c3)c3c(N)nccn32)C1 [Linsitinib] + O=C(CCCCCCC(=O)Nc1ccccc1)NO [Vorinostat] (partner 1 µM)
Procedure, shortened: as §1

[4] = compound: Cc1ccc(C(=O)N(CCCN)[C@@H](c2nc3cc(Cl)ccc3c(=O)n2Cc2ccccc2)C(C)C)cc1 [Ispinesib] + O=C(CCCCCCC(=O)Nc1ccccc1)NO [Vorinostat] (partner 1 µM)
Procedure, shortened: as §1

| Cell Line | relative viability ([1]; first compound 0.001 µM) | relative viability ([1]; first compound 0.003162 µM) | relative viability ([1]; first compound 0.01 µM) | relative viability ([1]; first compound 0.03162 µM) | relative viability ([1]; first compound 0.1 µM) | relative viability ([2]; first compound 0.001 µM) | relative viability ([2]; first compound 0.003162 µM) | relative viability ([2]; first compound 0.01 µM) | relative viability ([2]; first compound 0.03162 µM) | relative viability ([2]; first compound 0.1 µM) | relative viability ([3]; first compound 0.01 µM) | relative viability ([3]; first compound 0.03162 µM) | relative viability ([3]; first compound 0.1 µM) | relative viability ([3]; first compound 0.3162 µM) | relative viability ([3]; first compound 1 µM) | relative viability ([4]; first compound 0.001 µM) | relative viability ([4]; first compound 0.003162 µM) | relative viability ([4]; first compound 0.01 µM) | relative viability ([4]; first compound 0.03162 µM) | relative viability ([4]; first compound 0.1 µM) |
| --- | --- | --- | --- | --- | --- | --- | --- | --- | --- | --- | --- | --- | --- | --- | --- | --- | --- | --- | --- | --- |
| NCI-H2009 | 0.954 | 0.781 | 0.558 | 0.142 | 0.305 | 0.264 | 0.325 | 0.271 | 0.142 | 0.144 | 0.725 | 0.699 | 0.796 | 0.58 | 0.669 | 0.859 | 0.732 | 0.746 | 0.72 | 0.213 |
| NCI-H2023 | 0.771 | 0.819 | 0.424 | 0.134 | 0.115 | 0.693 | 0.613 | 0.613 | 0.306 | 0.146 | 0.71 | 0.327 | 0.903 | 0.196 | 0.398 | 0.646 | 0.563 | 0.43 | 0.237 | 0.162 |
| NCI-H2085 | 0.721 | 0.857 | 0.81 | 0.444 | 0.314 | 0.228 | 0.225 | 0.242 | 0.261 | 0.206 | 0.778 | 0.707 | 0.791 | 0.8 | 0.681 | 0.773 | 0.762 | 0.864 | 0.594 | 0.429 |
| NCI-H2087 | 0.92 | 1.04 | 1.35 | 0.293 | 0.182 | 0.998 | 0.841 | 0.963 | 0.39 | 0.117 | 0.68 | 0.74 | 0.702 | 0.693 | 0.795 | 0.963 | 0.45 | 0.937 | 0.995 | 0.141 |
| NCI-H2126 | 0.719 | 0.804 | 0.846 | 0.781 | 0.534 | 0.671 | 0.658 | 0.768 | 0.566 | 0.413 | 0.855 | 0.8 | 0.767 | 0.451 | 0.514 | 0.754 | 0.867 | 0.932 | 0.789 | 0.289 |
| NCI-H2170 | 0.265 | 0.252 | 0.269 | 0.182 | 0.214 | 0.639 | 0.583 | 0.58 | 0.294 | 0.201 | 0.771 | 0.771 | 0.753 |  | 0.696 | 0.923 | 0.77 | 0.969 | 0.502 | 0.199 |
| NCI-H2228 | 1.23 | 1.29 | 1.26 | 0.363 | 0.422 | 0.557 | 0.522 | 0.665 | 0.211 | 0.2 | 0.593 | 0.409 | 0.664 | 0.465 | 0.476 | 0.742 | 0.786 | 0.722 | 0.341 | 0.242 |
| NCI-H2347 | 0.943 | 1.05 | 0.957 | 0.667 | 0.774 | 0.285 | 0.209 | 0.289 | 0.284 | 0.282 | 0.677 | 0.583 | 0.591 | 0.444 | 0.57 | 0.562 | 0.617 | 0.738 | 0.625 | 0.471 |
